From ChEMBL document CHEMBL1629662, “Antimicrobial activity of prulifloxacin tested against a worldwide collection of gastroenteritis-producing pathogens, including those causing traveler's diarrhea” (2009)
Converted amounts (≈) assume the structure as drawn.

What was measured:
Shigella sp. [1] = experiment: Antibacterial activity against Shigella sp. assessed as growth inhibition at 0.008 ug/ml by broth microdilution method; format: functional
Campylobacter jejuni = experiment: Antibacterial activity against Campylobacter jejuni assessed as percent resistant isolates by broth microdilution method; format: functional; conditions: pooled result: one value given for 2 cell lines, strains, targets or settings
Aeromonas sp. [2] = experiment: Antibacterial activity against Aeromonas sp. assessed as growth inhibition at 0.004 ug/ml by broth microdilution method; format: functional
Salmonella typhimurium = experiment: Antibacterial activity against Salmonella enterica serovar Typhimurium by broth microdilution method; format: functional, Salmonella enterica subsp. enterica serovar Typhimurium
Shigella sp. [3] = experiment: Antibacterial activity against Shigella sp. assessed as growth inhibition at 0.06 ug/ml by broth microdilution method; format: functional
Shigella sp. [4] = experiment: Antibacterial activity against Shigella sp. assessed as growth inhibition at 0.03 ug/ml by broth microdilution method; format: functional
Yersinia sp. [5] = experiment: Antibacterial activity against Yersinia sp. assessed as growth inhibition at 0.06 ug/ml by broth microdilution method; format: functional; conditions: Yersinia sp. (in: enterobacteria)
[6] = Antibacterial activity against Salmonella enterica serovar Newport by broth microdilution method; format: functional, Salmonella enterica subsp. enterica serovar Newport
Shigella sonnei = experiment: Antibacterial activity against Shigella sonnei by broth microdilution method; format: functional
Escherichia coli [7] = experiment: microbe, parasite or virus in culture; format: functional
Escherichia coli [8] = experiment: Antibacterial activity against enteroaggregative Escherichia coli assessed as percent susceptible isolates by broth microdilution method; format: functional
Escherichia coli [9] = experiment: Antibacterial activity against enterotoxigenic Escherichia coli assessed as percent susceptible isolates by broth microdilution method; format: functional
Escherichia coli [10] = experiment: Antibacterial activity against enteroaggregative Escherichia coli by broth microdilution method; format: functional
Aeromonas veronii = experiment: Antibacterial activity against Aeromonas veronii assessed as percent resistant isolates by broth microdilution method; format: functional
Plesiomonas shigelloides = experiment: Antibacterial activity against Plesiomonas shigelloides assessed as growth inhibition at =<0.002 ug/ml by broth microdilution method; format: functional
Aeromonas sp. [11] = experiment: Antibacterial activity against Aeromonas sp. assessed as growth inhibition at 0.008 ug/ml by broth microdilution method; format: functional
Salmonella paratyphi = experiment: Antibacterial activity against Salmonella enterica serovar Paratyphi by broth microdilution method; format: functional, Salmonella enterica subsp. enterica serovar Paratyphi A
Campylobacter sp. [12] = experiment: Antibacterial activity against Campylobacter sp. assessed as growth inhibition at 0.25 ug/ml by broth microdilution method; format: functional
Campylobacter sp. [13] = experiment: Antibacterial activity against Campylobacter sp. assessed as growth inhibition at 2 ug/ml by broth microdilution method; format: functional
Vibrio sp. [14] = experiment: Antibacterial activity against Vibrio sp. assessed as percent resistant isolates by broth microdilution method; format: functional
Aeromonas sp. [15] = experiment: Antibacterial activity against Aeromonas sp. assessed as growth inhibition at 0.016 ug/ml by broth microdilution method; format: functional
Shigella dysenteriae = experiment: Antibacterial activity against Shigella dysenteriae assessed as percent susceptible isolates by broth microdilution method; format: functional
Aeromonas caviae = experiment: Antibacterial activity against Aeromonas caviae by broth microdilution method; format: functional
Yersinia sp. [16] = experiment: Antibacterial activity against Yersinia sp. assessed as growth inhibition at 0.016 ug/ml by broth microdilution method; format: functional; conditions: Yersinia sp. (in: enterobacteria)
Escherichia coli [17] = experiment: Antibacterial activity against Escherichia coli assessed as growth inhibition at 0.004 ug/ml by broth microdilution method; format: functional
Escherichia coli [18] = experiment: Antibacterial activity against Escherichia coli assessed as percent resistant isolates by broth microdilution method; format: functional
Vibrio sp. [19] = experiment: Antibacterial activity against Vibrio sp. assessed as growth inhibition at 0.004 ug/ml by broth microdilution method; format: functional
Aeromonas sp. [20] = experiment: Antibacterial activity against Aeromonas sp. assessed as growth inhibition at =<0.002 ug/ml by broth microdilution method; format: functional
Escherichia coli [21] = experiment: Antibacterial activity against Escherichia coli assessed as growth inhibition at 2 ug/ml by broth microdilution method; format: functional
Campylobacter sp. [22] = experiment: Antibacterial activity against Campylobacter sp. assessed as growth inhibition at 0.12 ug/ml by broth microdilution method; format: functional
Escherichia coli [23] = experiment: Antibacterial activity against enterotoxigenic Escherichia coli by broth microdilution method; format: functional
Salmonella sp. [24] = experiment: Antibacterial activity against Salmonella sp. assessed as growth inhibition at 0.008 ug/ml by broth microdilution method; format: functional
Campylobacter sp. [25] = experiment: Antibacterial activity against Campylobacter sp. assessed as growth inhibition at 0.03 ug/ml by broth microdilution method; format: functional
Escherichia coli [26] = experiment: Antibacterial activity against Escherichia coli assessed as growth inhibition at 0.12 ug/ml by broth microdilution method; format: functional
Salmonella typhi = experiment: Antibacterial activity against Salmonella enterica serovar Typhi by broth microdilution method; format: functional, Salmonella enterica subsp. enterica serovar Typhi
Campylobacter coli = experiment: Antibacterial activity against Campylobacter coli by broth microdilution method; format: functional
Yersinia enterocolitica [27] = experiment: Antibacterial activity against Yersinia enterocolitica assessed as percent susceptible isolates by broth microdilution method; format: functional
[28] = Antibacterial activity against Salmonella enterica serovar Heidelberg by broth microdilution method; format: functional, Salmonella enterica subsp. enterica serovar Heidelberg
Aeromonas sp. [29] = experiment: Antibacterial activity against Aeromonas sp. assessed as growth inhibition at 0.25 ug/ml by broth microdilution method; format: functional
Yersinia enterocolitica [30] = experiment: Antibacterial activity against Yersinia enterocolitica assessed as percent resistant isolates by broth microdilution method; format: functional
Salmonella sp. [31] = experiment: Antibacterial activity against Salmonella sp. assessed as growth inhibition at 0.03 ug/ml by broth microdilution method; format: functional
[32] = Escherichia coli, read-out: MIC50
[33] = Escherichia coli, read-out: MIC90
[34] = Escherichia coli, read-out: MIC

Question: Which results are given for `CC1Sc2c(C(=O)O)c(=O)c3cc(F)c(N4CCNCC4)cc3n21` (configuration not stated) [ULIFLOXACIN]?
Answer: inhibition at 0.008 µg/mL (Shigella sp. [1]): 95%; Activity (Campylobacter jejuni): 14.7%; inhibition at 0.004 µg/mL (Aeromonas sp. [2]): 55%; MIC50 (Salmonella typhimurium): 8 ng/mL (≈ 0.0229 µM); MIC90 (Salmonella typhimurium): 30 ng/mL (≈ 0.0859 µM); inhibition at 0.06 µg/mL (Shigella sp. [3]): 99%; inhibition at 0.03 µg/mL (Shigella sp. [4]): 99%; inhibition at 0.06 µg/mL (Yersinia sp. [5]): 98%; MIC50 [6]: 8 ng/mL (≈ 0.0229 µM); MIC90 [6]: 30 ng/mL (≈ 0.0859 µM); MIC50 (Shigella sonnei): 4 ng/mL (≈ 0.0114 µM); MIC90 (Shigella sonnei): 8 ng/mL (≈ 0.0229 µM); MIC50 (Escherichia coli [7]): 8 ng/mL (≈ 0.0229 µM); MIC90 (Escherichia coli [7]): 8 ng/mL (≈ 0.0229 µM); MIC50 (Escherichia coli [7]; [32]): 8 ng/mL (≈ 0.0229 µM); MIC90 (Escherichia coli [7]; [33]): 8 ng/mL (≈ 0.0229 µM); Activity (Escherichia coli [8]): 100%; Activity (Escherichia coli [9]): 100%; MIC (Escherichia coli [10]): 4 ng/mL (≈ 0.0114 µM); MIC50 (Escherichia coli [10]): 4 ng/mL (≈ 0.0114 µM); MIC90 (Escherichia coli [10]): 8 ng/mL (≈ 0.0229 µM); MIC (Escherichia coli [10]; [34]): 4 ng/mL (≈ 0.0114 µM); MIC50 (Escherichia coli [10]; [32]): 4 ng/mL (≈ 0.0114 µM); MIC90 (Escherichia coli [10]; [33]): 8 ng/mL (≈ 0.0229 µM); Activity (Aeromonas veronii): 2%; inhibition (INH) (Plesiomonas shigelloides): 0%; inhibition at 0.008 µg/mL (Aeromonas sp. [11]): 68%; MIC50 (Salmonella paratyphi): 8 ng/mL (≈ 0.0229 µM); MIC90 (Salmonella paratyphi): 30 ng/mL (≈ 0.0859 µM); inhibition at 0.25 µg/mL (Campylobacter sp. [12]): 83%; inhibition at 2 µg/mL (Campylobacter sp. [13]): 85%; Activity (Vibrio sp. [14]): 0%; inhibition at 0.016 µg/mL (Aeromonas sp. [15]): 78%; Activity (Shigella dysenteriae): 100%; MIC50 (Aeromonas caviae): 4 ng/mL (≈ 0.0114 µM); MIC90 (Aeromonas caviae): 60 ng/mL (≈ 0.172 µM); inhibition at 0.016 µg/mL (Yersinia sp. [16]): 93%; inhibition at 0.004 µg/mL (Escherichia coli [17]): 27%; Activity (Escherichia coli [18]): 3%; inhibition at 0.004 µg/mL (Vibrio sp. [19]): 35%; inhibition (INH) (Aeromonas sp. [20]): 16%; inhibition at 2 µg/mL (Escherichia coli [21]): 97%; inhibition at 0.12 µg/mL (Campylobacter sp. [22]): 82%; MIC (Escherichia coli [23]): 4 ng/mL (≈ 0.0114 µM); MIC50 (Escherichia coli [23]): 4 ng/mL (≈ 0.0114 µM); MIC90 (Escherichia coli [23]): 8 ng/mL (≈ 0.0229 µM); MIC (Escherichia coli [23]; [34]): 4 ng/mL (≈ 0.0114 µM); MIC50 (Escherichia coli [23]; [32]): 4 ng/mL (≈ 0.0114 µM); MIC90 (Escherichia coli [23]; [33]): 8 ng/mL (≈ 0.0229 µM); inhibition at 0.008 µg/mL (Salmonella sp. [24]): 65%; inhibition at 0.03 µg/mL (Campylobacter sp. [25]): 61%; inhibition at 0.12 µg/mL (Escherichia coli [26]): 97%; MIC50 (Salmonella typhi): 8 ng/mL (≈ 0.0229 µM); MIC90 (Salmonella typhi): 30 ng/mL (≈ 0.0859 µM); MIC50 (Campylobacter coli): 30 ng/mL (≈ 0.0859 µM); MIC90 (Campylobacter coli): > 2000 ng/mL; Activity (Yersinia enterocolitica [27]): 100%; MIC50 [28]: 8 ng/mL (≈ 0.0229 µM); MIC90 [28]: 30 ng/mL (≈ 0.0859 µM); inhibition at 0.25 µg/mL (Aeromonas sp. [29]): 95%; Activity (Yersinia enterocolitica [30]): 0%; inhibition at 0.03 µg/mL (Salmonella sp. [31]): 91%
